Assay results as given in article PMC6704710, “Preclinical evaluation of 3D185, a novel potent inhibitor of FGFR1/2/3 and CSF-1R, in FGFR-dependent and macrophage-dominant cancer models” (Journal of Experimental & Clinical Cancer Research : CR, 2019).

Assays:
Assay in all cases: Eurofins kinase panel
Assay type in all cases: biochemical
Conditions in all cases: read-out: Inhibition rate (%)
[1] = biological target: T1, CaMKIδ(h) (Homo sapiens, UniProt Q8IU85)
T1 construct: purchased Eurofins (KinaseProfiler)

[2] = biological target: T2, CaMKK2(h) (Homo sapiens, UniProt Q96RR4)
T2 construct: purchased Eurofins (KinaseProfiler)

[3] = biological target: T3, PDGFRβ(h) (Homo sapiens, UniProt P09619)
T3 construct: purchased Eurofins (KinaseProfiler)

[4] = biological target: T4, PIP5K1α(h) (Homo sapiens, UniProt Q99755)
T4 construct: purchased Eurofins (KinaseProfiler)

[5] = biological target: T5, ATR/ATRIP(h) (Homo sapiens, UniProt Q13535)
T5 construct: purchased Eurofins (KinaseProfiler)

[6] = biological target: T6, LTK(h) (Homo sapiens, UniProt P29376)
T6 construct: purchased Eurofins (KinaseProfiler)

[7] = biological target: T7, Met(M1268T)(h) (Homo sapiens, UniProt P08581, M1250T)
T7 construct: purchased Eurofins (KinaseProfiler)

[8] = biological target: T8, PI3 Kinase (p120γ)(h) (Homo sapiens, UniProt P48736)
T8 construct: purchased Eurofins (KinaseProfiler)

[9] = biological target: T9, SIK3(h) (Homo sapiens, UniProt Q9Y2K2)
T9 construct: purchased Eurofins (KinaseProfiler)

[10] = biological target: T10, PI3 Kinase (p110α/p85α)(h) (Homo sapiens, UniProt P42336)
T10 construct: purchased Eurofins (KinaseProfiler)

[11] = biological target: T11, NEK3(h) (Homo sapiens, UniProt P51956)
T11 construct: purchased Eurofins (KinaseProfiler)
T11 sequence (P51956 1-506): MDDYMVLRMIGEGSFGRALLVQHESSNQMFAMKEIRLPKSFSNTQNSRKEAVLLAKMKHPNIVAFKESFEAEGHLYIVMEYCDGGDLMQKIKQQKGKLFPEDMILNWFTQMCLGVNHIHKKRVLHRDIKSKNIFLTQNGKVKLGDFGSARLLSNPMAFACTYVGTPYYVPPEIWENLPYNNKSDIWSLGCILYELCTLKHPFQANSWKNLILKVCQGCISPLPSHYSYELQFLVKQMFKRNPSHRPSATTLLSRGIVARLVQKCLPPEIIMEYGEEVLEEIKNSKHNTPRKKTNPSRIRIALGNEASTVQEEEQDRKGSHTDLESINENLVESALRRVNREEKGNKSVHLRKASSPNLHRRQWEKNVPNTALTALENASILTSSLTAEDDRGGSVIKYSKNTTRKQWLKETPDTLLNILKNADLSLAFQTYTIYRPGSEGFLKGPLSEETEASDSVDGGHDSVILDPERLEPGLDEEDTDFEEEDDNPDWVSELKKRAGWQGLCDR

[12] = biological target: T12, SGK2(h) (Homo sapiens, UniProt Q9HBY8)
T12 construct: purchased Eurofins (KinaseProfiler)
T12 sequence (Q9HBY8 1-367): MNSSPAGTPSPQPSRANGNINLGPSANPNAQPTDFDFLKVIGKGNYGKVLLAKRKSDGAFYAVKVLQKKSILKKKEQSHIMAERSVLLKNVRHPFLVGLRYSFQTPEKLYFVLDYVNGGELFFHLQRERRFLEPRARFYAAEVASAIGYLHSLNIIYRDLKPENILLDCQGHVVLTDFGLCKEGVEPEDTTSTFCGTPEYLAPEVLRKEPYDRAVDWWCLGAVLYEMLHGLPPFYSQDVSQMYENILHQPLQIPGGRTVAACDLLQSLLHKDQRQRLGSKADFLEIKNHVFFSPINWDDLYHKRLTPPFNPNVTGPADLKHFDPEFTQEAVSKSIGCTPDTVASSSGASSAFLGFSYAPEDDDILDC

T10 sequence (P42336 whole entry): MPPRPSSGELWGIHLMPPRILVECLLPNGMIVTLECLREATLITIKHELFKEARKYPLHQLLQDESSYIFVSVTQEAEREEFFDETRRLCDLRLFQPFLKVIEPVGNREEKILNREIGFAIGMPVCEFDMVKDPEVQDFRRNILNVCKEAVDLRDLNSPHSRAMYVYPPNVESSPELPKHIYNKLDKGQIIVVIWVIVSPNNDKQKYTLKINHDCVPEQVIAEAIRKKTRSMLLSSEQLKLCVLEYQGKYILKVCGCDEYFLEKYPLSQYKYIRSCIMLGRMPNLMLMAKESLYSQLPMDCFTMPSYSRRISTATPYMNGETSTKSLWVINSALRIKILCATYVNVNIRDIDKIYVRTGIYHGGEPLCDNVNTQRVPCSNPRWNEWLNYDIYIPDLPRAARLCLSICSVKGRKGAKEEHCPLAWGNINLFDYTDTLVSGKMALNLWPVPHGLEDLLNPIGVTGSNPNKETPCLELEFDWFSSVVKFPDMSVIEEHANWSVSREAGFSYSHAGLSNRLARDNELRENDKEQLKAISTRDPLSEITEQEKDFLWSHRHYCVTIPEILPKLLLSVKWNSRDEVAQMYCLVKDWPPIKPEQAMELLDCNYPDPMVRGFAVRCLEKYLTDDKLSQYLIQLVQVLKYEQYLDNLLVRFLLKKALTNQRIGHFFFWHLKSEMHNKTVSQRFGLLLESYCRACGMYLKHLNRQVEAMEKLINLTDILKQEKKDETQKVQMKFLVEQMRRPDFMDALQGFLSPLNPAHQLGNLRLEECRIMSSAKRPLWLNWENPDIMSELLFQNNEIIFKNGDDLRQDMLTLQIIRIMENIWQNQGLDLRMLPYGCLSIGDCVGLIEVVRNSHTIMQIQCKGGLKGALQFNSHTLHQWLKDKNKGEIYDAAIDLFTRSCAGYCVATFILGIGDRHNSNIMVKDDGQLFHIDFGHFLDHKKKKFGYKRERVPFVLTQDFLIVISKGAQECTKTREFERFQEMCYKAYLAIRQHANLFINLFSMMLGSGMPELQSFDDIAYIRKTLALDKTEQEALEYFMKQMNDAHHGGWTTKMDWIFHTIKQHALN
T10 sequence (P27986 whole entry partner): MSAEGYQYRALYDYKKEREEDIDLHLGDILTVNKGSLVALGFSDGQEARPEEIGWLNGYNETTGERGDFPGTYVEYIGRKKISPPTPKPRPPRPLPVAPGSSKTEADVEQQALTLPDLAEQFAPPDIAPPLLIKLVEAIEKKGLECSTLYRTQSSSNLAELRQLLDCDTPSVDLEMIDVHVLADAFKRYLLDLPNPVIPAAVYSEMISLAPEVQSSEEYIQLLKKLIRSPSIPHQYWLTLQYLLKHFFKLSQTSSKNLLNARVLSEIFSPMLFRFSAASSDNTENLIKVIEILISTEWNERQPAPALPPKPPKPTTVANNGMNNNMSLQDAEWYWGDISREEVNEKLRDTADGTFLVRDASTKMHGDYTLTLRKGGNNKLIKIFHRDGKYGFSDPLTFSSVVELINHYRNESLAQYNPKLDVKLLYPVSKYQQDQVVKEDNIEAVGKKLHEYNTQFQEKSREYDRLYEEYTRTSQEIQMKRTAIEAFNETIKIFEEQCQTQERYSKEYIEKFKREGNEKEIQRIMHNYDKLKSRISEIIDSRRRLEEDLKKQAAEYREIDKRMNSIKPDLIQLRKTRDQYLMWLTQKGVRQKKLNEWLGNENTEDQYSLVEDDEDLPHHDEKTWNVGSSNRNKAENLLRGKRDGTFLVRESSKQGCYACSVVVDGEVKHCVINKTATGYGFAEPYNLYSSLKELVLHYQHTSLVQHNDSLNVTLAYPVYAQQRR
T9 sequence (Q9Y2K2 whole entry): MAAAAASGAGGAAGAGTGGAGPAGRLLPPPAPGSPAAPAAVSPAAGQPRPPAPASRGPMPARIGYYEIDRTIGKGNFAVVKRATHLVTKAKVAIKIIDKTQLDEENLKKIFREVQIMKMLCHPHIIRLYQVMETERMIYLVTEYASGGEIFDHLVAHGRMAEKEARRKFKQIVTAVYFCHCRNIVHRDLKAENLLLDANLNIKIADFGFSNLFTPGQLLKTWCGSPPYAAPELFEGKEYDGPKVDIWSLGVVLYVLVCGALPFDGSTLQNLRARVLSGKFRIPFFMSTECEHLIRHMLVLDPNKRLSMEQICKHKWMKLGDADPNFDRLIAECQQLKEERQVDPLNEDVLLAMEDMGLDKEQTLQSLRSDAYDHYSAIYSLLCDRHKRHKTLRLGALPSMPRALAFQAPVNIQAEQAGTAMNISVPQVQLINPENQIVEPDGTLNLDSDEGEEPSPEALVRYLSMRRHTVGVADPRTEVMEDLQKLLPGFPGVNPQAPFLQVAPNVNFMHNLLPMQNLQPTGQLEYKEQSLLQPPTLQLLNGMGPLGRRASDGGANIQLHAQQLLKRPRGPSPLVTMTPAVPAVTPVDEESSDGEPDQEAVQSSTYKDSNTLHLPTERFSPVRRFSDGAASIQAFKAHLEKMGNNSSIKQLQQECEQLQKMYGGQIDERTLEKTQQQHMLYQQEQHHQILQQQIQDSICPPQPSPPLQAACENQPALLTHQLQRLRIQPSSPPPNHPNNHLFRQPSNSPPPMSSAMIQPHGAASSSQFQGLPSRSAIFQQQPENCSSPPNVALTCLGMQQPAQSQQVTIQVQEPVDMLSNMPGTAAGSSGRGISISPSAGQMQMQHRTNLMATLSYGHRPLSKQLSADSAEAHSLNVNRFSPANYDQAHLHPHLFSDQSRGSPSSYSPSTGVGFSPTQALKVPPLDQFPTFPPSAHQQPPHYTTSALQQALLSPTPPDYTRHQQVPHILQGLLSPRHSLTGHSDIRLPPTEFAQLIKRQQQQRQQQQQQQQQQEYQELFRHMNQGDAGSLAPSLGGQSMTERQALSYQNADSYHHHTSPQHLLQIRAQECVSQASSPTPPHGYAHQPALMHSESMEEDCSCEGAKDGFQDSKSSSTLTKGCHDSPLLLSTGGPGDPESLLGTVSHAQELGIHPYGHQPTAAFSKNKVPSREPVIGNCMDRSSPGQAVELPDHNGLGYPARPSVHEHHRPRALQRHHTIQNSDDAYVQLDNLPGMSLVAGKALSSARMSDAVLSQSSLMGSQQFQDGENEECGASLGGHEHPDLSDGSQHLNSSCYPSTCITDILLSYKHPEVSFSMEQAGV
T3 sequence (P09619 33-1106): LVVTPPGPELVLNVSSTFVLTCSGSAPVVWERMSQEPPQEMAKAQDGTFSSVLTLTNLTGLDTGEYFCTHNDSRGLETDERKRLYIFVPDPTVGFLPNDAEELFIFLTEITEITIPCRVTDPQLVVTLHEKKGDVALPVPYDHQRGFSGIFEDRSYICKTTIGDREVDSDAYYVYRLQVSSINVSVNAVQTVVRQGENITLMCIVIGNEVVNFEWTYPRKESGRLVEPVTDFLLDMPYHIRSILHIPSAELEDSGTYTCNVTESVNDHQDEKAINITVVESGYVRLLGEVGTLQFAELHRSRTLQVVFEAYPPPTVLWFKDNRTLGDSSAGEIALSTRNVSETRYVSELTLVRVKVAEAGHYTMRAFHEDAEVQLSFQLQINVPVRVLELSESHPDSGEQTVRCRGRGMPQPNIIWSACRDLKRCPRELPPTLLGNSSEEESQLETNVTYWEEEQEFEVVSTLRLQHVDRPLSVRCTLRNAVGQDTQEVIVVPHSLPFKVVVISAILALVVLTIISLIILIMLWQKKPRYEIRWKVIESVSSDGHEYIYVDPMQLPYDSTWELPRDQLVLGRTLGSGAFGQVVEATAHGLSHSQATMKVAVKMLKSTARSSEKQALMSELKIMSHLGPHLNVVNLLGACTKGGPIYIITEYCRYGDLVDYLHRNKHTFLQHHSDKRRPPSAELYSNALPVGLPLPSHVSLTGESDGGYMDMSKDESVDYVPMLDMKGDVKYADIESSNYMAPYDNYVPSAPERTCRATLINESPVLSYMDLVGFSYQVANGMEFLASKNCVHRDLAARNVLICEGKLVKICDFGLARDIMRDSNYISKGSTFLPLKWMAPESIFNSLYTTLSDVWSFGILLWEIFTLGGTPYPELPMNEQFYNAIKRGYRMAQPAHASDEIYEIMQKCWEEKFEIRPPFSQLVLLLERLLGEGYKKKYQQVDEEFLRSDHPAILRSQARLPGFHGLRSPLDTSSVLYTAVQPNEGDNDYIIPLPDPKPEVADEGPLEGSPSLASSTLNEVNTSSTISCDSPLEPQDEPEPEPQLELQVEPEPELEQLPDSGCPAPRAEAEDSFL
T2 sequence (Q96RR4 whole entry): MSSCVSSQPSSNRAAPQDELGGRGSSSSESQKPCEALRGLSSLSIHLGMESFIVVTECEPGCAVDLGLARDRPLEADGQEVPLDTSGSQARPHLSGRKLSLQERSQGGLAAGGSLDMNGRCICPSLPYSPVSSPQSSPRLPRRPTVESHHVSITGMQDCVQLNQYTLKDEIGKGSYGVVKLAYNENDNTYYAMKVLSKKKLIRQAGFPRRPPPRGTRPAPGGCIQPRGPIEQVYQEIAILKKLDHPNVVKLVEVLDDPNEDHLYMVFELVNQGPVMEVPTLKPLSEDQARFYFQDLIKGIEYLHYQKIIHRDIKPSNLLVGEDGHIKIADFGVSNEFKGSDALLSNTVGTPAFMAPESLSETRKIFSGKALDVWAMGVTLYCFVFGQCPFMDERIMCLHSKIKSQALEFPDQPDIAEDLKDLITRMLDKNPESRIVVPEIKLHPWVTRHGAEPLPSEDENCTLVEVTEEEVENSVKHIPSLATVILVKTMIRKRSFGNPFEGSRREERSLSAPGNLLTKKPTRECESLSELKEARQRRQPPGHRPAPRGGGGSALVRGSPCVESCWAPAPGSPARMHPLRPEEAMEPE

Compound: COc1cc(OC)c(Cl)c(-c2ccc3c(NC(=O)c4ccc(N5CCNC(C)(C)C5)cc4)n[nH]c3n2)c1Cl [3D185]
- inhibition at 0.01 µM ([1]; 10 nM): 0%
- inhibition at 0.1 µM ([1]; 100 nM): 23%
- inhibition at 1 µM ([1]; 1000 nM): 76%
- inhibition at 0.01 µM ([2]; 10 nM): -4%
- inhibition at 0.1 µM ([2]; 100 nM): -22%
- inhibition at 1 µM ([2]; 1000 nM): 4%
- inhibition at 0.01 µM ([3]; 10 nM): 1%
- inhibition at 0.1 µM ([3]; 100 nM): -1%
- inhibition at 1 µM ([3]; 1000 nM): 17%
- inhibition at 0.01 µM ([4]; 10 nM): -1%
- inhibition at 0.1 µM ([4]; 100 nM): -4%
- inhibition at 1 µM ([4]; 1000 nM): -9%
- inhibition at 0.01 µM ([5]; 10 nM): -4%
- inhibition at 0.1 µM ([5]; 100 nM): 10%
- inhibition at 1 µM ([5]; 1000 nM): 6%
- inhibition at 0.01 µM ([6]; 10 nM): -8%
- inhibition at 0.1 µM ([6]; 100 nM): 1%
- inhibition at 1 µM ([6]; 1000 nM): 37%
- inhibition at 0.01 µM ([7]; 10 nM): -12%
- inhibition at 0.1 µM ([7]; 100 nM): -11%
- inhibition at 1 µM ([7]; 1000 nM): 15%
- inhibition at 0.01 µM ([8]; 10 nM): 0%
- inhibition at 0.1 µM ([8]; 100 nM): 1%
- inhibition at 1 µM ([8]; 1000 nM): 3%
- inhibition at 0.01 µM ([9]; 10 nM): -4%
- inhibition at 0.1 µM ([9]; 100 nM): -1%
- inhibition at 1 µM ([9]; 1000 nM): -2%
- inhibition at 0.01 µM ([10]; 10 nM): -1%
- inhibition at 0.1 µM ([10]; 100 nM): 1%
- inhibition at 1 µM ([10]; 1000 nM): 2%
- inhibition at 0.01 µM ([11]; 10 nM): 10%
- inhibition at 0.1 µM ([11]; 100 nM): 13%
- inhibition at 1 µM ([11]; 1000 nM): 5%
- inhibition at 0.01 µM ([12]; 10 nM): 4%
- inhibition at 0.1 µM ([12]; 100 nM): 1%
- inhibition at 1 µM ([12]; 1000 nM): 26%
